ChEMBL document CHEMBL1201862, “PubChem BioAssay data set” (2004)
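Protocol summary: plate cells (96-well), add compound at 5 concentrations, incubate 48 h, interpolate endpoints linearly. GI50 = concentration required for 50% inhibition of growth.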 Active and inactive are the calls of the source. No stated cut-off is given here; in the data, active = GI50 up to about 1.1 µM and inactive = higher.

Experiments:
Test in all cases: inhibition of tumour cell growth, NCI panel, 48 h
[1] = system: K562
[2] = system: RPMI-8226
[3] = system: ACHN
[4] = system: EKVX
[5] = system: HCT-116
[6] = system: SF-539
[7] = system: COLO 205
[8] = system: MDA-MB-435
[9] = system: HOP-92
[10] = system: SF-268
[11] = system: TK-10
[12] = system: SK-OV-3
[13] = system: SK-MEL-2
[14] = system: CCRF-CEM
[15] = system: NCI-H226
[16] = system: RXF 393
[17] = system: PC-3
[18] = system: CAKI-1
[19] = system: OVCAR-8
[20] = system: HT-29

Row | Compound | GI50 [1] | GI50 [2] | GI50 [3] | GI50 [4] | GI50 [5] | GI50 [6] | GI50 [7] | GI50 [8] | GI50 [9] | GI50 [10] | GI50 [11] | GI50 [12] | GI50 [13] | GI50 [14] | GI50 [15] | GI50 [16] | GI50 [17] | GI50 [18] | GI50 [19] | GI50 [20]
1 | COc1cccc([C@@H]2C/C(=N\NC(=O)C(=O)N[C@@H](C)c3ccccc3)c3cc4c(cc3N2)OCO4)c1 | 13.2 µM (inactive) | 30.5 µM (inactive) | > 100 µM (inactive) | 65.9 µM (inactive) | 22.4 µM (inactive) | 23.8 µM (inactive) | 25.5 µM (inactive) | 2.28 µM (inactive) | > 100 µM (inactive) | 29.9 µM (inactive) | > 100 µM (inactive) | > 100 µM (inactive) | 85.9 µM (inactive) | 28.1 µM (inactive) | 10.5 µM (inactive) | > 100 µM (inactive) | 98.6 µM (inactive) | 48.1 µM (inactive) | – | –
2 | O=C1NC(N2CCCC(CO)C2)=N/C1=C\c1ccccc1 (stereo unspecified) | – | > 100 µM (inactive) | > 100 µM (inactive) | > 100 µM (inactive) | > 100 µM (inactive) | > 100 µM (inactive) | > 100 µM (inactive) | > 100 µM (inactive) | > 100 µM (inactive) | > 100 µM (inactive) | > 100 µM (inactive) | > 100 µM (inactive) | > 100 µM (inactive) | > 100 µM (inactive) | > 100 µM (inactive) | > 100 µM (inactive) | > 100 µM (inactive) | > 100 µM (inactive) | > 100 µM (inactive) | > 100 µM (inactive)
3 | CC(C)(C)OC(=O)NCCCCC1NC(=O)[C@@H]2Cc3c([nH]c4ccccc34)C(c3ccccc3)N2C1=O (stereo partly specified) | 33.4 µM (inactive) | 27.7 µM (inactive) | 43.8 µM (inactive) | 44.9 µM (inactive) | 29.7 µM (inactive) | – | 21.1 µM (inactive) | 34.2 µM (inactive) | 22.8 µM (inactive) | 14 µM (inactive) | 35.2 µM (inactive) | 50.4 µM (inactive) | 24.7 µM (inactive) | 26.7 µM (inactive) | 63.7 µM (inactive) | 14.7 µM (inactive) | 33.8 µM (inactive) | 50.5 µM (inactive) | 36.2 µM (inactive) | 25.6 µM (inactive)
4 | CCn1c(-c2ccc(/N=N/Nc3ccc(-c4n[nH]c(=S)n4CC)cc3)cc2)n[nH]c1=S | 2.67 µM (inactive) | 1.92 µM (inactive) | 2.36 µM (inactive) | 2.41 µM (inactive) | 3.55 µM (inactive) | – | 2.69 µM (inactive) | 2.45 µM (inactive) | 2.79 µM (inactive) | 3.24 µM (inactive) | 4.92 µM (inactive) | 3.33 µM (inactive) | 1.68 µM (inactive) | 3.91 µM (inactive) | 2.24 µM (inactive) | 3.43 µM (inactive) | 2.75 µM (inactive) | 2.7 µM (inactive) | 2.28 µM (inactive) | 3.55 µM (inactive)
5 | O=C1CC(c2ccc(Cl)cc2)C2(C(=O)NC(=S)NC2=O)C(c2ccc(Cl)cc2)C1 (stereo unspecified) | 30.5 µM (inactive) | 20.6 µM (inactive) | 36.2 µM (inactive) | 29 µM (inactive) | 18.7 µM (inactive) | 20 µM (inactive) | 16.8 µM (inactive) | 19.5 µM (inactive) | 5.31 µM (inactive) | 16.2 µM (inactive) | 41.1 µM (inactive) | 14.9 µM (inactive) | 17.3 µM (inactive) | 24.2 µM (inactive) | 21.7 µM (inactive) | 14.5 µM (inactive) | 20.1 µM (inactive) | 25.1 µM (inactive) | – | 16.9 µM (inactive)
6 | Oc1ccccc1CNCc1nc2ccccc2[nH]1 | 51.2 µM (inactive) | 17.7 µM (inactive) | 12.9 µM (inactive) | 36.1 µM (inactive) | 37 µM (inactive) | > 100 µM (inactive) | 29.7 µM (inactive) | > 100 µM (inactive) | 73.5 µM (inactive) | > 100 µM (inactive) | 83 µM (inactive) | – | > 100 µM (inactive) | 29 µM (inactive) | 20.9 µM (inactive) | 75 µM (inactive) | 71.9 µM (inactive) | 69.3 µM (inactive) | 29 µM (inactive) | 0.495 µM (active)
7 | Cc1cc(C)c(C#N)c(SC(=S)NC(=O)c2ccccc2)n1 | > 100 µM (inactive) | > 100 µM (inactive) | > 100 µM (inactive) | > 100 µM (inactive) | > 100 µM (inactive) | > 100 µM (inactive) | > 100 µM (inactive) | > 100 µM (inactive) | > 100 µM (inactive) | > 100 µM (inactive) | > 100 µM (inactive) | – | > 100 µM (inactive) | > 100 µM (inactive) | > 100 µM (inactive) | 3.95 µM (inactive) | > 100 µM (inactive) | > 100 µM (inactive) | – | > 100 µM (inactive)
